US10287269B2, “Pyrazolyl pyrimidinone compounds as PDE2 inhibitors” (Merck Sharp & Dohme Corp., priority 2015, dated 2019)
Read-outs that look alike come from different tables or passages of the source.

Target: T1, Rhesus PDE2A3 (Macaca mulatta, UniProt B3VTJ2)
T1 construct: made in house; host or cells: AD293 cells, transient transfection, pcDNA3.3-TOPO; lysate supernatant used as enzyme
T1 sequence (B3VTJ2 1-941): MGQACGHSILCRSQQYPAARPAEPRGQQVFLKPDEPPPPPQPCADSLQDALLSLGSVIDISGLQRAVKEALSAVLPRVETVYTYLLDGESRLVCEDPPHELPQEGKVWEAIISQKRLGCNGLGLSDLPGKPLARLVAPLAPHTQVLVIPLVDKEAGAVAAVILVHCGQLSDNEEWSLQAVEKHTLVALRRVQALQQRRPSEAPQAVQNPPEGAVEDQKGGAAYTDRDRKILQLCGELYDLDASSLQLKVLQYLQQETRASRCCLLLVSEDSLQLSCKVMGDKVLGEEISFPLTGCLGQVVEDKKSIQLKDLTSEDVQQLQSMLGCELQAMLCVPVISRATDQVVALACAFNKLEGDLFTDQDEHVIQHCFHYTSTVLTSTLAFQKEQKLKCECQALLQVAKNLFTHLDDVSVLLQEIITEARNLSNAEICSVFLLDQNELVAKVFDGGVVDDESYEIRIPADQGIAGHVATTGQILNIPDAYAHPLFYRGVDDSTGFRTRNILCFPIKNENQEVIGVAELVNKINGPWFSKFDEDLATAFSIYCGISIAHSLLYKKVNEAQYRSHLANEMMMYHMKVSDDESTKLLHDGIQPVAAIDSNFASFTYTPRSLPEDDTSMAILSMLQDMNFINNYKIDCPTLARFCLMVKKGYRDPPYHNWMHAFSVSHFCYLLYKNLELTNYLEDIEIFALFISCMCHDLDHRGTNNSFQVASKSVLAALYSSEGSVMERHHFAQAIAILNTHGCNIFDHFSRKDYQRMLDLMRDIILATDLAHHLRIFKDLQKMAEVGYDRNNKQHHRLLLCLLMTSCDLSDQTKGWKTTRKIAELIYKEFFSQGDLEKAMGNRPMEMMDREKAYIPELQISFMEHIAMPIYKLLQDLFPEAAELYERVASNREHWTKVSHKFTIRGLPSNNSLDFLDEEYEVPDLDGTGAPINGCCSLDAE
Assay: PDE2 fluorescence polarization (IMAP FP) inhibition assay, rhesus enzyme
Format: biochemical, rhesus macaque
Method: The activity of the compounds in accordance with the present invention as PDE2 inhibitors may be readily determined using a fluorescence polarization (FP) methodology (Huang, W., et al., J. Biomol Screen, 2002, 7: 215).
In a typical experiment the PDE2 inhibitory activity of the compounds of the present invention was determined in accordance with the following experimental method. Rhesus PDE2A3 was amplified from rhesus macaque brain cDNA (Biochain Institute, Hayward, Calif.) using primers based on human PDE2A sequence (accession NM_002599.3) where the forward primer containing a Kozak consensus was 5′-[…]-3′ and the reverse primer was 5′-[…]-3′. Amplification with Easy-A High-Fidelity PCR cloning enzyme (Stratagene, La Jolla, Calif.) was 95° C. for 2 minutes followed by thirty three cycles of 95° C. for 40 seconds, 52° C. for 30 seconds, and 72° C. for 2 minutes 48 seconds. Final extension was 72° C. for 7 minutes. The PCR product was TA cloned into pcDNA3.3-TOPO (Invitrogen, Carlsbad, Calif.) according to standard protocol. A consensus sequence was developed from multiple clones and then deposited into GenBank (EU812167). AD293 cells (Stratagene, La Jolla, Calif.) with 70-80% confluency were transiently transfected with rhesus PDE2A3/pcDNA3.3-TOPO using Lipofectamine 2000 according to manufacturer specifications (Invitrogen, Carlsbad, Calif.). Cells were harvested 48 hours post-transfection and lysed by sonication (setting 3, 10×5 sec pulses) in a buffer containing 20 mM HEPES pH 7.4, 1 mM EDTA and Complete Protease Inhibitor Cocktail Tablets (Roche, Indianapolis, Ind.). Lysate was collected by centrifugation at 75,000×g for 20 minutes at 4° C. and supernatant utilized for evaluation of PDE2 activity. The fluorescence polarization assay for cyclic nucleotide phosphodiesterases was performed using an IMAP® FP kit supplied by Molecular Devices, Sunnyvale, Calif. (product # R8139). […] Assays were performed at room temperature in 384-well microtiter plates with an incubation volume of 20.2 μL. Solutions of test compounds were prepared in DMSO and serially diluted with DMSO to yield 8 μL of each of 10 solutions differing by 3-fold in concentration, at 32 serial dilutions per plate. […] 0% of inhibition is determined by using DMSO (1% final concentrations).
A Labcyte Echo 555 (Labcyte, Sunnyvale, Calif.) is used to dispense 200 nL from each well of the titration plate to the 384 well assay plate. Ten microliters of a solution of enzyme (1/2000 final dilution from aliquots; sufficient to produce 20% substrate conversion) was added to the assay plate. Next 10 uL of a separate solution of the substrate FAM-labeled cAMP (50 nM final concentration product # R7506 from Molecular Devices) and the activator cGMP (1 uM final concentration), prepared in the assay buffer (10 mM Tris HCl, pH 7.2, 10 mM MgCl2, 0.05% NaN3 0.01% Tween-20, and 1 mM DTT) was added to the assay plate and shaken to mix. The reaction is allowed to proceed at room temperature for 60 minutes. A binding solution is then made from the kit components, comprised of 80% Solution A, 20% Solution B and binding reagent at a volume of 1/600 the total binding solution. The enzymatic reaction is stopped by addition of 60 μl, of the binding solution to each well of the assay plates and the plates are sealed and shaken for 30 seconds. The plate was incubated at room temperature for at least one hour prior to determining the fluorescence polarization (FP). The parallel and perpendicular fluorescence of each well of the plate was measured using a Tecan Genios Pro plate reader (Tecan, Switzerland) or Perkin Elmer EnVision™ plate reader (Waltham, Mass.). Fluorescence polarization (mP) was calculated from the parallel (S) and perpendicular (P) fluorescence of each sample well and the analogous values for the median control well, containing only substrate (So and Po), using the following equation: Polarization (mP)=1000*(S/So−P/Po)/(S/So+P/Po).

[1] = Lab B, read-out: Rhesus PDE2 Ki (nM) Lab B
[2] = Lab A, read-out: Rhesus PDE2 Ki (nM) Lab A

Row | Ki [1] [nM] | Ki [2] [nM] | Compound
1 | 2620 | – | Cc1nc(-n2cc(C(C)c3ccc4c(c3)CCOC4)cn2)cc(=O)[nH]1 (stereo not drawn) [Example 42, 6-(4-(1-(isochroman-6-yl)ethyl)-1H-pyrazol-1-yl)-2-methylpyrimidin-4(3H)-one]
2 | 49300 | 19300 | Cc1nc(-n2cc(CN3CCC(C(F)(F)F)CC3)cn2)cc(=O)[nH]1 [Example 32, 2-Methyl-6-(4-((4-(trifluoromethyl)piperidin-1-yl)methyl)-1H-pyrazol-1-yl)pyrimidin-4(3H)-one]
3 | 3830 | – | COC(=O)c1ccc(C(C)n2cc(-c3cc(=O)[nH]c(C)n3)cn2)cc1 (stereo not drawn) [Example 155, methyl 4-(1-(4-(2-methyl-6-oxo-1,6-dihydropyrimidin-4-yl)-1H-pyrazol-1-yl)ethyl)benzoate]
4 | – | > 2970 | COCc1ccc(C(C)n2cc(-c3cc(=O)[nH]c(C)n3)cn2)c(F)c1 (single isomer, unassigned) [Example 98, (S)- or (R)-6-(1-(1-(2-fluoro-4-(methoxymethyl)phenyl)ethyl)-1H-pyrazol-4-yl)-2-methylpyrimidin-4(3H)-one]
5 | – | 397 | Cc1nc(-c2cnn(C(C)c3ccc(C(F)(F)F)cc3C(F)(F)F)c2)cc(=O)[nH]1 (single isomer, unassigned) [Example 144, (R)- or (S)-6-(1-(1-(2,4-bis(trifluoromethyl)phenyl)ethyl)-1H-pyrazol-4-yl)-2-methylpyrimidin-4(3H)-one]
6 | 18500 | – | Cc1nc(-c2ccn(C(C)c3ccccc3)n2)cc(=O)[nH]1 (stereo not drawn) [Example 158, 2-methyl-6-(1-(1-phenylethyl)-1H-pyrazol-3-yl)pyrimidin-4(3H)-one]
7 | 4890 | – | Cc1nc(-c2cnn(C(C)c3ccccc3)c2)cc(=O)[nH]1 (stereo not drawn) [Example 156, 2-methyl-6-(1-(1-phenylethyl)-1H-pyrazol-4-yl)pyrimidin-4(3H)-one]
8 | 7300 | – | COCCc1ccc(C(C)c2cnn(-c3cc(=O)[nH]c(C)n3)c2)cc1 (stereo not drawn) [Example 41, 6-(4-(1-(4-(2-methoxyethyl)phenyl)ethyl)-1H-pyrazol-1-yl)-2-methylpyrimidin-4(3H)-one]
9 | 18200 | – | Cc1nc(-n2cc(C(C)c3ccncc3)cn2)cc(=O)[nH]1 (stereo not drawn) [Example 54, 2-methyl-6-[4-(1-pyridin-4-ylethyl)-1H-pyrazol-1-yl]pyrimidin-4(3H)-one]
10 | 11000 | – | Cc1nc(-c2ccnn2C(C)c2ccc(C(F)(F)F)cc2)cc(=O)[nH]1 (stereo not drawn) [Example 74, 2-methyl-6-(1-(1-(4-(trifluoromethyl)phenyl)ethyl)-1H-pyrazol-5-yl)pyrimidin-4(3H)-one]
11 | 2300 | – | CCCC(c1ccc(C(F)(F)F)cc1)n1ccc(-c2cc(=O)[nH]c(C)n2)n1 (stereo not drawn) [Example 160, 2-methyl-6-(1-(1-(4-(trifluoromethyl)phenyl)butyl)-1H-pyrazol-3-yl)pyrimidin-4(3H)-one]
12 | 2480 | – | Cc1nc(-n2cc(C(C)c3ccc4c(c3)COCC4)cn2)cc(=O)[nH]1 (stereo not drawn) [Example 46, 6-(4-(1-(isochroman-7-yl)ethyl)-1H-pyrazol-1-yl)-2-methylpyrimidin-4(3H)-one]
13 | > 1000 | – | Cc1nc(-n2cc(C(C)c3ccc(C(F)(F)F)c(F)c3)cn2)cc(=O)[nH]1 (single isomer, unassigned) [Example 50, (R)- or (S)-6-(4-(1-(3-fluoro-4-(trifluoromethyl)phenyl)ethyl)-1H-pyrazol-1-yl)-2-methylpyrimidin-4(3H)-one]
14 | 303 | – | Cc1nc(-n2cc(C(C)c3ccc(C4CCC4)cc3)cn2)cc(=O)[nH]1 (stereo not drawn) [Example 38, 6-(4-(1-(4-cyclobutylphenyl)ethyl)-1H-pyrazol-1-yl)-2-methylpyrimidin-4(3H)-one]
15 | 588 | – | Cc1nc(-c2cnn(C(C)c3ccc(OC(F)(F)F)cc3)c2)cc(=O)[nH]1 (single isomer, unassigned) [Example 128, (S)- or (R)-2-methyl-6-(1-(1-(4-(trifluoromethoxy)phenyl)ethyl)-1H-pyrazol-4-yl)pyrimidin-4(3H)-one]
16 | 727 | – | Cc1nc(-c2c(C)nn(C(C)c3ccc(C(F)(F)F)cc3)c2C)cc(=O)[nH]1 (stereo not drawn) [Example 79, 6-(3,5-dimethyl-1-(1-(4-(trifluoromethyl)phenyl)ethyl)-1H-pyrazol-4-yl)-2-methylpyrimidin-4(3H)-one]
17 | – | 150 | Cc1nc(-c2cnn(C(C)c3ccc(OC(F)F)cc3C)c2)cc(=O)[nH]1 (single isomer, unassigned) [Example 90, (S)- or (R)-6-(1-(1-(4-(difluoromethoxy)-2-methylphenyl)ethyl)-1H-pyrazol-4-yl)-2-methylpyrimidin-4(3H)-one]
18 | 313 | – | CCCc1ccc(C(C)c2cnn(-c3cc(=O)[nH]c(C)n3)c2)cc1 (stereo not drawn) [Example 43, 2-methyl-6-(4-(1-(4-propylphenyl)ethyl)-1H-pyrazol-1-yl)pyrimidin-4(3H)-one]
19 | 411 | – | Cc1nc(-n2cc(C(C)c3ccc(C(C)(C)C)cc3)cn2)cc(=O)[nH]1 (stereo not drawn) [Example 45, 6-(4-(1-(4-(tert-butyl)phenyl)ethyl)-1H-pyrazol-1-yl)-2-methylpyrimidin-4(3H)-one]
20 | > 1000 | – | Cc1nc(-n2cc(C(C)c3ccc(C(F)(F)F)c(F)c3)cn2)cc(=O)[nH]1 (single isomer, unassigned) [Example 51, (S)- or (R)-6-(4-(1-(3-fluoro-4-(trifluoromethyl)phenyl)ethyl)-1H-pyrazol-1-yl)-2-methylpyrimidin-4(3H)-one]
21 | > 1000 | – | Cc1nc(-c2cc(C(C)c3ccc(C(F)(F)F)cc3)nn2C)cc(=O)[nH]1 (single isomer, unassigned) [Example 132, (S)- or (R)-2-methyl-6-(1-methyl-3-(1-(4-(trifluoromethyl)phenyl)ethyl)-1H-pyrazol-5-yl)pyrimidin-4(3H)-one]
22 | 6380 | – | Cc1nc(-c2cnn(C(C)c3cccc(C(F)(F)F)c3)c2)cc(=O)[nH]1 (stereo not drawn) [Example 73, 2-methyl-6-(1-(1-(3-(trifluoromethyl)phenyl)ethyl)-1H-pyrazol-4-yl)pyrimidin-4(3H)-one]
23 | 301 | – | COc1cc(C(F)(F)F)ccc1[C@@H](C)n1cc(-c2cc(=O)[nH]c(C)n2)cn1 (single isomer, unassigned) [Example 1]
